Assay results published in patent US11844349B2, “Anti-microbial agent to control biomass accumulation in SO2 scrubbers” (ECOLAB USA INC., priority 2016, dated 2023).

Test system: bacterial populations native to the test sample
Assay: Minimum inhibitory concentration screen of biocides under anaerobic conditions (pH indicator dye)
Assay type: cell-based
Details: pH 6.5, read-out: Minimum Inhibitory Concentration
Description: A few exemplary biocides or a combination of one or more quaternary ammonium compounds with one additional biocide were investigated for their ability to inhibit microorganism growth. The method used to generate the data in Table 1 was based on methods for identifying the minimum inhibitory concentration of biocides or biocidal agents for use in anaerobically contaminated aqueous system as disclosed in the patent publication WO9934013A1 by Schwingel, et. al.
The method was a test assay used to rapidly screen antimicrobial agents against bacterial populations native to the test sample under anaerobic conditions. The assay utilized a pH indicator dye which is red at pH levels above 6.5 and yellow below pH 6.5. During fermentation under anaerobic conditions, volatile fatty acids were produced, which lowered the pH of the system. In the test wells, the accumulation of volatile fatty acids from actively growing and fermenting microorganisms lowered the pH causing the indicator dye to turn yellow. […]
When the control sample had turned yellow due to active fermentation and acid production, all samples were examined for color change, and the Minimum Inhibitory Concentration (MIC) values recorded. […] Because MIC values change with extended contact time, it was important to read the MIC values within 2-3 hours of the control wells turning yellow. […]

Compound | MIC
N#CSCSC#N [Methylenebisthiocyanate] | 0.8 to 1.6 µg/mL
CN1CSC(=S)N(C)C1 [3,5-dimethyl-tetrahydro-2H-1,3,5-thiadiazine-2-thione] | 26.2 µg/mL
